From patent US20080090805A1, “CB-1 MODULATING COMPOUNDS AND THEIR USE” (ACADIA PHARMACEUTICALS INC., priority 2005, published 2008)

Each molecule was assayed against native CB1 receptors (Rattus norvegicus, UniProt P20272) (assay: CB1 receptor rat binding assay ([3H]SR141716A, rat brain membranes)). Conditions: rat brain membranes, [3H]SR141716A.
Chain of native CB1 receptors (P20272 whole entry): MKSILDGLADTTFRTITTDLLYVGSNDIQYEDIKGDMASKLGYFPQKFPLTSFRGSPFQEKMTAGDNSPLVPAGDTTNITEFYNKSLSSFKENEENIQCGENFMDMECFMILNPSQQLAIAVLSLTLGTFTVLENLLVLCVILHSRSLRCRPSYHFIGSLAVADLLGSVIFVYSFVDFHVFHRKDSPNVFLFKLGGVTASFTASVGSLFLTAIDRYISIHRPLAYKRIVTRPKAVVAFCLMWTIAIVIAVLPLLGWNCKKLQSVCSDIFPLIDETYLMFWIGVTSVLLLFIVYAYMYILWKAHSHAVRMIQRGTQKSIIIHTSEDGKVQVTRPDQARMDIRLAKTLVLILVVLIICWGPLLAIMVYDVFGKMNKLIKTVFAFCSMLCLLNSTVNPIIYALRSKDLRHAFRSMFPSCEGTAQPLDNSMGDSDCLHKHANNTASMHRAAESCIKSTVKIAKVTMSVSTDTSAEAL

| SMILES | Binding rat Inh % [%] | Binding rat pKi |
| --- | --- | --- |
| O=C(NC1CCC(F)(F)CC1)c1ccc2c(c1)N=C(c1ccc(Cl)s1)c1ccccc1S2 [drawing 1224] | 107 |  |
| CCCCNC(=O)c1ccc2c(c1)N=C(c1ccc(Cl)cc1)c1sccc1S2 [drawing 1247] | 97 |  |
| CC(C)CCNC(=O)c1ccc2c(c1)N=C(c1cccc(F)c1)c1ccccc1S2 [drawing 1240] | 99 |  |
| O=C(NN1CCCCC1)c1ccc2c(c1)N=C(c1ccc(Cl)c(Cl)c1)c1ccccc1S2 [drawing 1305] | 96 |  |
| CCCCNC(=O)c1ccc2c(c1)N=C(c1ccc(Cl)cc1)c1cc(F)ccc1S2 [drawing 1500] | 90 |  |
| C[C@@H]1CCC[C@H](C)N1NC(=O)c1ccc2c(c1)N=C(c1cccc(F)c1)c1ccccc1S2 [drawing 1261] | 91 |  |
| O=C(NC1CCCCC1)c1ccc2c(c1)N=C(c1ccccn1)c1ccccc1S2 [drawing 1537] | 77 |  |
| O=C(NN1CCCCCC1)c1ccc2c(c1)N=C(c1ccccc1F)c1ccccc1S2 [drawing 1342] | 101 |  |
| CCCCNC(=O)c1ccc2c(c1)N=C(c1ccc(Cl)s1)c1cc(Cl)ccc1S2 [drawing 1426] | 85 |  |
| CC(C)CNC(=O)c1ccc2c(c1)N=C(c1ccc(Cl)cc1)c1ccccc1S2 [drawing 1314] | 92 |  |
| O=C(NN1CCCCC1)c1ccc2c(c1)N=C(c1cccc(Cl)c1)c1ccccc1S2 [drawing 1380] | 79 |  |
| O=C(NC1CCC(F)(F)CC1)c1ccc2c(c1)N=C(c1ccc(F)cc1)c1ccccc1S2 [drawing 1258] | 94 |  |
| O=C(NCCc1cccnc1)c1ccc2c(c1)N=C(c1cccc(F)c1)c1ccccc1S2 [drawing 1333] | 94 |  |
| Cc1ccsc1C1=Nc2cc(C(=O)NC3CCC(F)(F)CC3)ccc2Sc2ccccc21 [drawing 1265] | 93 |  |
| CCCCNC(=O)c1ccc2c(c1)N=C(c1cccc(Cl)c1)c1cc(Cl)ccc1S2 [drawing 1235] | 89 |  |

The remaining lines, values ahead:

| Binding rat Inh % [%] | Binding rat pKi | SMILES |
| --- | --- | --- |
| 90 |  | CCOC(=O)c1ccc(C2=Nc3cc(C(=O)NCc4cccnc4)ccc3Sc3ccccc32)cc1 [drawing 1350] |
| 98 |  | CCCCNC(=O)c1ccc2c(c1)N=C(c1ccc(Cl)cn1)c1ccccc1S2 [drawing 1501] |
| 71 |  | O=C(NCc1ccccn1)c1ccc2c(c1)N=C(c1ccc(Br)cc1)c1ccccc1S2 [drawing 1469] |
| 72 |  | NS(=O)(=O)c1ccc(CNC(=O)c2ccc3c(c2)N=C(c2ccc(F)cc2)c2ccccc2S3)cc1 [drawing 1454] |
| 78 |  | O=C(NC1CCCC1)c1ccc2c(c1)N=C(c1ccc(Cl)c(Cl)c1)c1ccccc1S2 [drawing 1399] |
| 79 |  | COc1ccc(C2=Nc3cc(C(=O)NC(C)C)ccc3Sc3ccccc32)cc1 [drawing 1550] |
| 85 |  | O=C(NCc1ccco1)c1ccc2c(c1)N=C(c1cccc(Cl)c1)c1ccccc1S2 [drawing 1448] |
|  | 8.6 | CC(C)CNC(=O)c1ccc2c(c1)N=C(c1ccc(Cl)s1)c1ccccc1S2 [drawing 1201] |
| 98 |  | O=C(NCc1cccs1)c1ccc2c(c1)N=C(c1ccc(Cl)s1)c1ccccc1S2 [drawing 1256] |
| 87 |  | CC(C)CNC(=O)c1ccc2c(c1)N=C(c1cccc(F)c1)c1ccccc1S2 [drawing 1490] |
| 81 |  | Cc1csc(CNC(=O)c2ccc3c(c2)N=C(c2ccc(F)cc2)c2ccccc2S3)c1 [drawing 1430] |
| 89 |  | O=C(NC1CCCC1)c1ccc2c(c1)N=C(c1ccc(Cl)cc1)c1ccccc1S2 [drawing 1436] |
| 96 |  | O=C(NCCc1cccnc1)c1ccc2c(c1)N=C(c1ccc(F)cc1)c1ccccc1S2 [drawing 1203] |
| 93 |  | O=C(NCc1ccco1)c1ccc2c(c1)N=C(c1ccc(Cl)cc1)c1ccccc1S2 [drawing 1369] |
| 89 |  | COCCNC(=O)c1ccc2c(c1)N=C(c1ccc(Br)cc1)c1ccccc1S2 [drawing 1358] |
| 82 |  | CCCCNC(=O)c1ccc2c(c1)N=C(c1cccc(F)c1)c1ccccc1S2 [drawing 1498] |
| −43 |  | CCOC(=O)c1ccc(C2=Nc3cc(C(=O)NCc4ccccn4)ccc3Sc3ccccc32)cc1 [drawing 1476] |
| 84 |  | O=C(NCc1cccnc1)c1ccc2c(c1)N=C(c1cccc(F)c1)c1ccccc1S2 [drawing 1221] |
| 83 |  | CCCCNC(=O)c1ccc2c(c1)N=C(c1ccc(Br)cn1)c1ccccc1S2 [drawing 1378] |
| 81 |  | CCOCCNC(=O)c1ccc2c(c1)N=C(c1ccc(Br)cc1)c1ccccc1S2 [drawing 1404] |

Same assay, conditions: rat brain membranes, [3H]SR141716A; read-out: Binding rat pKi (converted)

| SMILES | Ki [nM] |
| --- | --- |
| O=C(NC1CCC(F)(F)CC1)c1ccc2c(c1)N=C(c1ccc(Cl)s1)c1ccccc1S2 [drawing 1224] | 0.631 |
| CCCCNC(=O)c1ccc2c(c1)N=C(c1ccc(Cl)cc1)c1sccc1S2 [drawing 1247] | 1 |
| CC(C)CCNC(=O)c1ccc2c(c1)N=C(c1cccc(F)c1)c1ccccc1S2 [drawing 1240] | 0.794 |
| O=C(NN1CCCCC1)c1ccc2c(c1)N=C(c1ccc(Cl)c(Cl)c1)c1ccccc1S2 [drawing 1305] | 2.51 |
| CCCCNC(=O)c1ccc2c(c1)N=C(c1ccc(Cl)cc1)c1cc(F)ccc1S2 [drawing 1500] | 10 |
| C[C@@H]1CCC[C@H](C)N1NC(=O)c1ccc2c(c1)N=C(c1cccc(F)c1)c1ccccc1S2 [drawing 1261] | 20 |
| O=C(NC1CCCCC1)c1ccc2c(c1)N=C(c1ccccn1)c1ccccc1S2 [drawing 1537] | 100 |
| O=C(NN1CCCCCC1)c1ccc2c(c1)N=C(c1ccccc1F)c1ccccc1S2 [drawing 1342] | 25.1 |
| CCCCNC(=O)c1ccc2c(c1)N=C(c1ccc(Cl)s1)c1cc(Cl)ccc1S2 [drawing 1426] | 6.31 |
| CC(C)CNC(=O)c1ccc2c(c1)N=C(c1ccc(Cl)cc1)c1ccccc1S2 [drawing 1314] | 3.16 |
| O=C(NN1CCCCC1)c1ccc2c(c1)N=C(c1cccc(Cl)c1)c1ccccc1S2 [drawing 1380] | 31.6 |
| O=C(NC1CCC(F)(F)CC1)c1ccc2c(c1)N=C(c1ccc(F)cc1)c1ccccc1S2 [drawing 1258] | 1.26 |
| O=C(NCCc1cccnc1)c1ccc2c(c1)N=C(c1cccc(F)c1)c1ccccc1S2 [drawing 1333] | 25.1 |
| Cc1ccsc1C1=Nc2cc(C(=O)NC3CCC(F)(F)CC3)ccc2Sc2ccccc21 [drawing 1265] | 1.58 |
| CCCCNC(=O)c1ccc2c(c1)N=C(c1cccc(Cl)c1)c1cc(Cl)ccc1S2 [drawing 1235] | 15.8 |

Further lines, results first:

| Ki [nM] | SMILES |
| --- | --- |
| 31.6 | CCOC(=O)c1ccc(C2=Nc3cc(C(=O)NCc4cccnc4)ccc3Sc3ccccc32)cc1 [drawing 1350] |
| 10 | CCCCNC(=O)c1ccc2c(c1)N=C(c1ccc(Cl)cn1)c1ccccc1S2 [drawing 1501] |
| 50.1 | O=C(NCc1ccccn1)c1ccc2c(c1)N=C(c1ccc(Br)cc1)c1ccccc1S2 [drawing 1469] |
| 50.1 | NS(=O)(=O)c1ccc(CNC(=O)c2ccc3c(c2)N=C(c2ccc(F)cc2)c2ccccc2S3)cc1 [drawing 1454] |
| 5.01 | O=C(NC1CCCC1)c1ccc2c(c1)N=C(c1ccc(Cl)c(Cl)c1)c1ccccc1S2 [drawing 1399] |
| 100 | COc1ccc(C2=Nc3cc(C(=O)NC(C)C)ccc3Sc3ccccc32)cc1 [drawing 1550] |
| 7.94 | O=C(NCc1ccco1)c1ccc2c(c1)N=C(c1cccc(Cl)c1)c1ccccc1S2 [drawing 1448] |
| 1.26 | O=C(NCc1cccs1)c1ccc2c(c1)N=C(c1ccc(Cl)s1)c1ccccc1S2 [drawing 1256] |
| 10 | CC(C)CNC(=O)c1ccc2c(c1)N=C(c1cccc(F)c1)c1ccccc1S2 [drawing 1490] |
| 50.1 | Cc1csc(CNC(=O)c2ccc3c(c2)N=C(c2ccc(F)cc2)c2ccccc2S3)c1 [drawing 1430] |
| 50.1 | O=C(NC1CCCC1)c1ccc2c(c1)N=C(c1ccc(Cl)cc1)c1ccccc1S2 [drawing 1436] |
| 12.6 | O=C(NCCc1cccnc1)c1ccc2c(c1)N=C(c1ccc(F)cc1)c1ccccc1S2 [drawing 1203] |
| 5.01 | O=C(NCc1ccco1)c1ccc2c(c1)N=C(c1ccc(Cl)cc1)c1ccccc1S2 [drawing 1369] |
| 31.6 | COCCNC(=O)c1ccc2c(c1)N=C(c1ccc(Br)cc1)c1ccccc1S2 [drawing 1358] |
| 10 | CCCCNC(=O)c1ccc2c(c1)N=C(c1cccc(F)c1)c1ccccc1S2 [drawing 1498] |
| 63.1 | CCOC(=O)c1ccc(C2=Nc3cc(C(=O)NCc4ccccn4)ccc3Sc3ccccc32)cc1 [drawing 1476] |
| 15.8 | O=C(NCc1cccnc1)c1ccc2c(c1)N=C(c1cccc(F)c1)c1ccccc1S2 [drawing 1221] |
| 5.01 | CCCCNC(=O)c1ccc2c(c1)N=C(c1ccc(Br)cn1)c1ccccc1S2 [drawing 1378] |
| 39.8 | CCOCCNC(=O)c1ccc2c(c1)N=C(c1ccc(Br)cc1)c1ccccc1S2 [drawing 1404] |
